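Grown in 96-well plates, cells were treated for 48 hours with each compound at five concentrations. Insufficient inhibition: endpoint recorded as highest concentration tested. GI50 = concentration required for 50% inhibition of growth.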 Calls of active or inactive are those of the source. No stated cut-off is given here; in the data, active = GI50 up to about 1.1 µM and inactive = higher.
How the values were obtained:
Assay in all cases: growth of human tumour cells (NCI), 48 h
[1] = tested on: 786-0
[2] = tested on: A498
[3] = tested on: A549
[4] = tested on: ACHN
[5] = tested on: BT-549
[6] = tested on: CAKI-1
[7] = tested on: CCRF-CEM
[8] = tested on: COLO 205
[9] = tested on: DU-145
[10] = tested on: EKVX
[11] = tested on: HCT-116
[12] = tested on: HCT-15
[13] = tested on: HL-60
[14] = tested on: HOP-62
[15] = tested on: HOP-92
[16] = tested on: HT-29
[17] = tested on: Hs-578T
[18] = tested on: IGROV-1
[19] = tested on: K562
[20] = tested on: KM12
[21] = tested on: LOX IMVI
[22] = tested on: M14
[23] = tested on: MCF7
[24] = tested on: MDA-MB-231
[25] = tested on: MDA-MB-435
[26] = tested on: MDA-N
[27] = tested on: MOLT-4
[28] = tested on: Malme-3M
[29] = tested on: NCI-H226
[30] = tested on: NCI-H23
[31] = tested on: NCI-H460
[32] = tested on: NCI-H522
[33] = tested on: NCI/ADR-RES
[34] = tested on: OVCAR-3
[35] = tested on: OVCAR-4
[36] = tested on: OVCAR-5
[37] = tested on: OVCAR-8
[38] = tested on: PC-3
[39] = tested on: RPMI-8226
[40] = tested on: RXF 393
[41] = tested on: SF-268
[42] = tested on: SF-295
[43] = tested on: SF-539
[44] = tested on: SK-MEL-28
[45] = tested on: SK-MEL-2
[46] = tested on: SK-MEL-5
[47] = tested on: SK-OV-3
[48] = tested on: SN12C
[49] = tested on: SNB-19
[50] = tested on: SNB-75
[51] = tested on: SR
[52] = tested on: SW-620
[53] = tested on: T47D
[54] = tested on: TK-10
[55] = tested on: U-251
[56] = tested on: UACC-257
[57] = tested on: UACC-62
[58] = tested on: UO-31
[59] = tested on: HCC 2998

## COc1ccc(C=O)cc1OS(=O)(=O)C(F)(F)C(F)(F)C(F)(F)C(F)(F)F
[1]
  GI50: 31.6 µM (inactive)
[2]
  GI50: 3.72 µM (inactive)
[3]
  GI50: 48.4 µM (inactive)
[4]
  GI50: 44.5 µM (inactive)
[5]
  GI50: 30.2 µM (inactive)
[6]
  GI50: 40.3 µM (inactive)
[7]
  GI50: 14.8 µM (inactive)
[8]
  GI50: 24.5 µM (inactive)
[9]
  GI50: > 68.2 µM (inactive)
[10]
  GI50: 33.3 µM (inactive)
[11]
  GI50: 27.2 µM (inactive)
[12]
  GI50: 26.9 µM
[13]
  GI50: 8.75 µM (inactive)
[14]
  GI50: 26.6 µM (inactive)
[15]
  GI50: 13.2 µM (inactive)
[16]
  GI50: 29.9 µM (inactive)
[17]
  GI50: 22.6 µM (inactive)
[18]
  GI50: 24.9 µM (inactive)
[19]
  GI50: 3.52 µM (inactive)
[20]
  GI50: 28.4 µM (inactive)
[21]
  GI50: 15.2 µM (inactive)
[22]
  GI50: 28 µM (inactive)
[23]
  GI50: 26.1 µM (inactive)
[24]
  GI50: 23.6 µM (inactive)
[25]
  GI50: 19.9 µM (inactive)
[26]
  GI50: 19 µM (inactive)
[27]
  GI50: 3.23 µM (inactive)
[28]
  GI50: 23.4 µM (inactive)
[29]
  GI50: > 100 µM (inactive)
[30]
  GI50: 32.1 µM (inactive)
[31]
  GI50: 27.2 µM (inactive)
[32]
  GI50: 24.5 µM (inactive)
[33]
  GI50: 21 µM (inactive)
[34]
  GI50: 27 µM (inactive)
[35]
  GI50: 43.8 µM (inactive)
[36]
  GI50: 50.7 µM (inactive)
[37]
  GI50: 28.1 µM (inactive)
[38]
  GI50: 32.3 µM (inactive)
[39]
  GI50: 21.8 µM (inactive)
[40]
  GI50: 21.3 µM (inactive)
[41]
  GI50: 26.5 µM (inactive)
[42]
  GI50: 22.1 µM (inactive)
[43]
  GI50: 18.5 µM (inactive)
[44]
  GI50: 24.4 µM (inactive)
[45]
  GI50: 17.1 µM (inactive)
[46]
  GI50: 15.5 µM (inactive)
[47]
  GI50: 30.4 µM (inactive)
[48]
  GI50: 42.1 µM (inactive)
[49]
  GI50: 42.1 µM (inactive)
[50]
  GI50: 31.2 µM (inactive)
[51]
  GI50: 6.27 µM (inactive)
[52]
  GI50: 24.9 µM (inactive)
[53]
  GI50: 41.7 µM (inactive)
[54]
  GI50: > 49.5 µM (inactive)
[55]
  GI50: 22.9 µM (inactive)
[56]
  GI50: 36.6 µM (inactive)
[57]
  GI50: 21.4 µM (inactive)
[58]
  GI50: 22.8 µM (inactive)

## O=C(O)c1ccc(OCc2nc3cc(C(F)(F)F)ccc3nc2-c2ccccc2)cc1
[1]
  GI50: 98.4 µM (inactive)
[2]
  GI50: > 100 µM (inactive)
[3]
  GI50: 39.2 µM (inactive)
[4]
  GI50: 30.9 µM (inactive)
[5]
  GI50: 75.3 µM (inactive)
[6]
  GI50: 5.52 µM (inactive)
[7]
  GI50: 42.8 µM (inactive)
[8]
  GI50: 19.8 µM (inactive)
[9]
  GI50: 60.1 µM (inactive)
[10]
  GI50: 55.7 µM (inactive)
[59]
  GI50: 41.2 µM (inactive)
[11]
  GI50: 36.9 µM (inactive)
[12]
  GI50: 39.1 µM
[13]
  GI50: 40 µM (inactive)
[14]
  GI50: 66.2 µM (inactive)
[15]
  GI50: 29 µM (inactive)
[16]
  GI50: 32.1 µM (inactive)
[17]
  GI50: 43.5 µM (inactive)
[18]
  GI50: 56 µM (inactive)
[19]
  GI50: 39.4 µM (inactive)
[20]
  GI50: 30.1 µM (inactive)
[21]
  GI50: 40 µM (inactive)
[22]
  GI50: 80.4 µM (inactive)
[23]
  GI50: 45 µM (inactive)
[24]
  GI50: 56.4 µM (inactive)
[25]
  GI50: 55.2 µM (inactive)
[26]
  GI50: 46.1 µM (inactive)
[29]
  GI50: 91.4 µM (inactive)
[30]
  GI50: 36.8 µM (inactive)
[31]
  GI50: 24.7 µM (inactive)
[32]
  GI50: 74.6 µM (inactive)
[33]
  GI50: 44.6 µM (inactive)
[34]
  GI50: 34.8 µM (inactive)
[36]
  GI50: > 100 µM (inactive)
[37]
  GI50: 41.9 µM (inactive)
[38]
  GI50: 53.8 µM (inactive)
[40]
  GI50: 36.8 µM (inactive)
[41]
  GI50: 41.8 µM (inactive)
[42]
  GI50: 39.1 µM (inactive)
[43]
  GI50: 32.1 µM (inactive)
[44]
  GI50: 61 µM (inactive)
[45]
  GI50: 37.9 µM (inactive)
[46]
  GI50: 32.1 µM (inactive)
[48]
  GI50: 60.4 µM (inactive)
[49]
  GI50: 73.8 µM (inactive)
[50]
  GI50: 17.2 µM (inactive)
[51]
  GI50: 11.5 µM (inactive)
[52]
  GI50: 53.2 µM (inactive)
[53]
  GI50: 50.7 µM (inactive)
[54]
  GI50: 71 µM (inactive)
[55]
  GI50: 44.2 µM (inactive)
[56]
  GI50: 78.7 µM (inactive)
[57]
  GI50: 37.6 µM (inactive)
[58]
  GI50: 22 µM (inactive)

## O=c1c(C(c2ccc(C(c3c(O)oc4cc(O)ccc4c3=O)c3c(O)oc4cc(O)ccc4c3=O)cc2)c2c(O)oc3cc(O)ccc3c2=O)c(O)oc2cc(O)ccc12
[2]
  GI50: > 100 µM (inactive)
[3]
  GI50: > 100 µM (inactive)
[5]
  GI50: > 100 µM (inactive)
[6]
  GI50: > 100 µM (inactive)
[7]
  GI50: 53.2 µM (inactive)
[8]
  GI50: 53.3 µM (inactive)
[9]
  GI50: > 100 µM (inactive)
[10]
  GI50: > 100 µM (inactive)
[59]
  GI50: > 100 µM (inactive)
[11]
  GI50: > 100 µM (inactive)
[12]
  GI50: > 100 µM
[13]
  GI50: 44.6 µM (inactive)
[14]
  GI50: > 100 µM (inactive)
[15]
  GI50: > 100 µM (inactive)
[16]
  GI50: > 100 µM (inactive)
[17]
  GI50: > 100 µM (inactive)
[18]
  GI50: > 100 µM (inactive)
[19]
  GI50: > 100 µM (inactive)
[21]
  GI50: > 100 µM (inactive)
[22]
  GI50: > 100 µM (inactive)
[23]
  GI50: > 100 µM (inactive)
[24]
  GI50: > 100 µM (inactive)
[25]
  GI50: > 100 µM (inactive)
[26]
  GI50: > 100 µM (inactive)
[27]
  GI50: > 100 µM (inactive)
[28]
  GI50: > 100 µM (inactive)
[29]
  GI50: > 100 µM (inactive)
[30]
  GI50: > 100 µM (inactive)
[31]
  GI50: > 100 µM (inactive)
[33]
  GI50: > 100 µM (inactive)
[34]
  GI50: > 100 µM (inactive)
[35]
  GI50: 93.1 µM (inactive)
[36]
  GI50: > 100 µM (inactive)
[37]
  GI50: > 100 µM (inactive)
[38]
  GI50: > 100 µM (inactive)
[40]
  GI50: > 100 µM (inactive)
[41]
  GI50: > 100 µM (inactive)
[42]
  GI50: > 100 µM (inactive)
[43]
  GI50: > 100 µM (inactive)
[44]
  GI50: > 100 µM (inactive)
[45]
  GI50: > 100 µM (inactive)
[46]
  GI50: 48.6 µM (inactive)
[47]
  GI50: > 100 µM (inactive)
[48]
  GI50: 93.1 µM (inactive)
[50]
  GI50: > 100 µM (inactive)
[51]
  GI50: > 100 µM (inactive)
[52]
  GI50: > 100 µM (inactive)
[53]
  GI50: > 100 µM (inactive)
[54]
  GI50: > 100 µM (inactive)
[55]
  GI50: > 100 µM (inactive)
[56]
  GI50: > 100 µM (inactive)
[57]
  GI50: > 100 µM (inactive)
[58]
  GI50: > 100 µM (inactive)

Source: ChEMBL document CHEMBL1201862, “PubChem BioAssay data set” (2004)
